As usually defined, the Ki is a measure of affinity in units of concentration, obtained from inhibition or displacement. Low readings indicate tighter binding, high ones weaker binding.

The results in this text go back to patent US9981909B2 (Janssen Pharmaceutica NV, priority 2008, dated 2018).

The target of the assay is rat 5-HT7 receptor (Rattus norvegicus (Rat), UniProt P32305). The assay is described as follows: r5-HT7 binding assay, competitive radioligand binding with [3H]5-CT. The following applies: rat 5-HT7 receptor, HEK-293 membranes. The procedure: Receptor binding was performed using membrane fractions prepared from the HEK-293 cell line recombinantly expressing rat 5-HT7 receptors (NCBI accession NM_022938). Compound affinity for the rat 5-HT7 receptor subtype was evaluated by competitive radioligand binding assays using 5-carboxamido[^3H]tryptamine ([^3H]5-CT) (Amersham Biosciences, cat. 90000403) detection. HitHunter™ cAMP assays are in-vitro based competitive immunoassays. The assay was performed on the HEK-293 cell line stably transfected with r5-HT7 receptor. Cells were pre-incubated with test compounds for 10 minutes. For antagonist testing, the cells were then challenged with 100 nM 5-CT for 20 minutes. Cells were then lysed and cAMP measured according to manufacturers protocol (Amersham, cat. NET791250UC) or [^3H]mesulergine (Amersham, cat. TRK1041). The assay was performed on membranes prepared from HEK-293 cells stably transfected with h5-HT6. Following centrifugation, membranes were resuspended and incubated for 60 min at room temperature with 1.7 nM [^3H]LSD in the presence of increasing concentration of test compounds. Nonspecific binding was defined in the presence of 10 μM clozapine (Tocris, cat. TRK1068). Homogenized HEK-293 membranes expressing the human SERT were incubated in 50 mM Tris-HCl (pH 7.5), 120 mM NaCl, 5 mM KCl with [^3H]-citalopram (3 nM) with or without test compounds. Nonspecific binding was determined in the presence of 10 μM fluoxetine. Radioactivity readouts and Ki values were performed as previously described for r5-HT7. […] Compounds were assayed in their free form or as salts, as indicated in the Examples section above.

Molecules are shown by their SMILES. Counter-ions that a name gives are not always drawn.

rat 5-HT7 receptor, sequence (P32305 1-435): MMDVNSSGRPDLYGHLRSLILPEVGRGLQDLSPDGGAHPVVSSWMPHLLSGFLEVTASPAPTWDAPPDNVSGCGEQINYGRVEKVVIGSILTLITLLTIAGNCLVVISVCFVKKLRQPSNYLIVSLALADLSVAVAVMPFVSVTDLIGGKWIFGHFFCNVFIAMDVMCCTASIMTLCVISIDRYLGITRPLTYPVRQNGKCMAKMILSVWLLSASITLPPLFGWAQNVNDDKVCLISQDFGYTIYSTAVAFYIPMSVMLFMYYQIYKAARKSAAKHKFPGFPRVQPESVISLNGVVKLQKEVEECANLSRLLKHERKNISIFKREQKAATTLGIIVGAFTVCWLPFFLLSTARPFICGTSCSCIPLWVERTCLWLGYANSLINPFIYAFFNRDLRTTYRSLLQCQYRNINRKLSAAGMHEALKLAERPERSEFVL

On to `CCOC(=O)c1ccc(COc2ccc(Cl)cc2OC2CNC2)o1` [Example 55, 5-[2-(Azetidin-3-yloxy)-4-chloro-phenoxymethyl]-furan-2-carboxylic acid ethyl ester], for which the Ki worked out at 171 nM. In other words, the sub-micromolar range.

With `CS(=O)(=O)c1cc(Cl)ccc1COc1ccc(Cl)cc1OC1CNC1` [Example 56, 3-[5-Chloro-2-(4-chloro-2-methanesulfonyl-benzyloxy)-phenoxy]-azetidine], the Ki came to 9000 nM.

Take `Fc1ccc(COc2ccc(Cl)cc2OC2CNC2)c(F)c1` [Example 57, 3-[5-Chloro-2-(2,4-difluoro-benzyloxy)-phenoxy]-azetidine]: the Ki is 42 nM.

`Clc1cccc(COc2ccc(Cl)cc2O[C@@H]2CCNC2)c1` [Example 58, (R)-3-[5-Chloro-2-(3-chloro-benzyloxy)-phenoxy]-pyrrolidine] came in with a Ki of 120 nM.

As to `Clc1ccc(OCc2ccccc2Cl)c(O[C@@H]2CCNC2)c1` [Example 60, (R)-3-[5-Chloro-2-(2-chloro-benzyloxy)-phenoxy]-pyrrolidine], the inhibition constant Ki was determined as 250 nM.

On to `CN1CC[C@@H](Oc2cc(Cl)ccc2OCc2ccccc2Cl)C1` [Example 61, (R)-3-[5-Chloro-2-(2-chloro-benzyloxy)-phenoxy]-1-methyl-pyrrolidine], for which the inhibition constant (Ki) stood at 36 nM. This Ki lies about 6.9-fold lower than the previous one.

Turning to `Clc1ccc(OCc2ccccc2)c(OC2CCNCC2)c1` [Example 62, 4-(2-Benzyloxy-5-chloro-phenoxy)-piperidine], the Ki was 34 nM.

Molecule `Clc1ccc(OC2CCCC2)c(OC2CNC2)c1` [Example 72, 3-(5-Chloro-2-cyclopentyloxy-phenoxy)-azetidine trifluoroacetate] had an inhibitory constant (Ki) of 270 nM.

In turn, `Brc1ccc(OCC2CCCCC2)c(OC2CNC2)c1` [Example 74, 3-(5-Bromo-2-cyclohexylmethoxy-phenoxy)-azetidine] came in with an inhibitory constant (Ki) of 11 nM.

In turn, `O=C(O)c1cc(COc2ccc(Cl)cc2OC2CNC2)oc1C(F)(F)F` [Example 75, 5-[2-(Azetidin-3-yloxy)-4-chloro-phenoxymethyl]-2-trifluoromethyl-furan-3-carboxylic acid trifluoroacetate] showed an inhibitory constant (Ki) of 9000 nM.

In turn, `CCOC(=O)c1cc(COc2ccc(Cl)cc2OC2CNC2)oc1C(F)(F)F` [Example 76, 5-[2-(Azetidin-3-yloxy)-4-chloro-phenoxymethyl]-2-trifluoromethyl-furan-3-carboxylic acid ethyl ester] registered a Ki of 5000 nM.

Molecule `Cc1cc(COc2ccc(Cl)cc2OC2CNC2)c(C(F)(F)F)o1` [Example 78, 3-[5-Chloro-2-(5-methyl-2-trifluoromethyl-furan-3-ylmethoxy)-phenoxy]-azetidine] returned an inhibition constant (Ki) of 710 nM.

On to `Cc1nc(C(F)(F)F)ccc1COc1ccc(Cl)cc1OC1CNC1` [Example 80, 3-[2-(Azetidin-3-yloxy)-4-chloro-phenoxymethyl]-2-methyl-6-trifluoromethyl-pyridine], for which the Ki is > 10000 nM.

For the molecule `FC(F)(F)c1ccc(COc2ccc(Cl)cc2OC2CNC2)cn1` [Example 82, 5-[2-(Azetidin-3-yloxy)-4-chloro-phenoxymethyl]-2-trifluoromethyl-pyridine], the Ki is 198 nM.

The molecule `Clc1ccc(OCc2cnco2)c(OC2CNC2)c1` [Example 87, 5-[2-(Azetidin-3-yloxy)-4-chloro-phenoxymethyl]-oxazole] returned a Ki of 240 nM.

On to `Clc1ccc(OCc2nccs2)c(OC2CNC2)c1` [Example 88, 2-[2-(Azetidin-3-yloxy)-4-chloro-phenoxymethyl]-thiazole], for which the affinity, expressed as Ki, was 681 nM.

The molecule `C[C@H](Oc1ccc(Cl)cc1OC1CN(C)C1)c1cccc(C(F)(F)F)c1` [Example 103, (S)-3-[5-Chloro-2-[1-(3-trifluoromethyl-phenyl)-ethoxy]-phenoxy]-1-methyl-azetidine] registered a Ki of 27 nM.

Take `C[C@H](Oc1ccc(Cl)cc1OC1CN(Cc2ccccc2)C1)c1cccc(C(F)(F)F)c1` [Example 104, (S)-1-Benzyl-3-[5-chloro-2-[1-(3-trifluoromethyl-phenyl)-ethoxy]-phenoxy]-azetidine]: the affinity corresponds to a Ki of 166 nM.

`CC(Oc1ccc(Cl)cc1OC1CNC1)c1cncs1` (stereo not drawn) [Example 132, 5-[1-[2-(Azetidin-3-yloxy)-4-chloro-phenoxy]-ethyl]-thiazole]: the Ki came out at 456 nM.

In turn, `CC(Oc1ccc(Cl)cc1OC1CNC1)c1nccs1` (stereo not drawn) [Example 133, 2-[1-[2-(Azetidin-3-yloxy)-4-chloro-phenoxy]-ethyl]-thiazole] yielded an inhibition constant (Ki) of 591 nM.

`Cc1nc(C)c(C(C)Oc2ccc(Cl)cc2OC2CNC2)s1` (stereo not drawn) [Example 134, 5-[1-[2-(Azetidin-3-yloxy)-4-chloro-phenoxy]-ethyl]-2,4-dimethyl-thiazole] came in with a Ki of 3830 nM. Compared with the last molecule, the Ki is about 6.5-fold higher.

The molecule `C[C@@H](Oc1ccc(Cl)cc1OC1CCCNC1)c1cccc(C(F)(F)F)c1` (stereo partly drawn) [Example 139, (R,S)-3-[5-Chloro-2-[1-((R)-3-trifluoromethyl-phenyl)-ethoxy]-phenoxy]-piperidine] showed a Ki of 189 nM.

`FCC(Oc1ccc(Cl)cc1OC1CNC1)c1ccccc1` (stereo not drawn) [Example 143, 3-[5-Chloro-2-(2-fluoro-1-phenyl-ethoxy)-phenoxy]-azetidine] showed an inhibitory constant (Ki) of 215 nM.

`CCC(Oc1ccc(Cl)cc1OC1CNC1)c1ccccc1` (stereo not drawn) [Example 147, 3-[5-Chloro-2-(1-phenyl-propoxy)-phenoxy]-azetidine]: the Ki stood at 211 nM.

Take `OCC(Oc1ccc(Cl)cc1OC1CNC1)c1ccccc1` (stereo not drawn) [Example 148, 2-[2-(Azetidin-3-yloxy)-4-chloro-phenoxy]-2-phenyl-ethanol]: the affinity corresponds to a Ki of 2000 nM.

For the molecule `O=C(O)C(Oc1ccc(Cl)cc1OC1CNC1)c1ccccc1` (stereo not drawn) [Example 149, [2-(Azetidin-3-yloxy)-4-chloro-phenoxy]-phenyl-acetic acid hydrochloride], the Ki was > 10000 nM.

The molecule `CC(C)(C)c1ccc2c(c1)CCC2Oc1ccc(Br)cc1OC1CNC1` (stereo not drawn) [Example 162, 3-[5-Bromo-2-(5-tert-butyl-indan-1-yloxy)-phenoxy]-azetidine] displayed a Ki of 5000 nM.

`Clc1ccc(OCC2CCOC2)c(OC2CNC2)c1` (stereo not drawn) [Example 163, 3-[5-Chloro-2-(tetrahydro-furan-3-ylmethoxy)-phenoxy]-azetidine] came in with a Ki of 766 nM.

Molecule `Clc1ccc(OCC2CCCO2)c(OC2CNC2)c1` (stereo not drawn) [Example 166, 3-[5-Chloro-2-(tetrahydro-furan-2-ylmethoxy)-phenoxy]-azetidine] had a Ki of 1270 nM.

For `Clc1ccc(OCC2COc3ccccc3C2)c(OC2CNC2)c1` (stereo not drawn) [Example 167, 3-[5-Chloro-2-(chroman-3-ylmethoxy)-phenoxy]-azetidine], the Ki is 167 nM.

In turn, `Clc1ccc(OCC2Cc3ccccc3O2)c(OC2CNC2)c1` (stereo not drawn) [Example 169, 3-[5-Chloro-2-(2,3-dihydro-benzofuran-2-ylmethoxy)-phenoxy]-azetidine] had a Ki of 119 nM.

Turning to `Cc1cc(COc2ccc(Cl)cc2OC2CNC2)n(C)n1` [Example 170, 5-[2-(Azetidin-3-yloxy)-4-chloro-phenoxymethyl]-1,3-dimethyl-1H-pyrazole], affinity was put at a Ki of 5000 nM.

`Fc1cccc(COc2ccc(Br)cc2OC2CN(c3ccccc3)C2)c1` [Example 172, 3-[5-Bromo-2-(3-fluoro-benzyloxy)-phenoxy]-1-phenyl-azetidine]: the Ki worked out at 5000 nM. That is a single-digit micromolar value.

The molecule `ON=C1c2ccccc2CC1Oc1ccc(Cl)cc1OC1CNC1` (stereo not drawn) [Example 179, 2-[2-(Azetidin-3-yloxy)-4-chloro-phenoxy]-indan-1-one oxime] registered a Ki of 360 nM.

Molecule `CON=C1c2ccccc2CC1Oc1ccc(Cl)cc1OC1CNC1` (stereo not drawn) [Example 180, 2-[2-(Azetidin-3-yloxy)-4-chloro-phenoxy]-indan-1-one O-methyl-oxime] displayed an inhibition constant (Ki) of 813 nM.

Take `O=C(COc1ccc(Cl)cc1OC1CNC1)c1ccc(Cl)cc1` [Example 183, 2-[2-(Azetidin-3-yloxy)-4-chloro-phenoxy]-1-(4-chloro-phenyl)-ethanone]: affinity was put at a Ki of 110 nM.

On to `Clc1cccc(C2(COc3ccc(Cl)cc3OC3CNC3)CCC2)c1` [Example 189, 3-[5-Chloro-2-[1-(3-chloro-phenyl)-cyclobutylmethoxy]-phenoxy]-azetidine], for which affinity was put at a Ki of 138 nM. This Ki and that of the molecule before are within 1.5-fold of each other.

`Fc1cc(Cl)cc(OC2CNC2)c1OCc1ccccc1` [Example 197, 3-(2-Benzyloxy-5-chloro-3-fluoro-phenoxy)-azetidine] displayed a Ki of 1420 nM.

Take `Fc1cc(Cl)cc(OC2CNC2)c1OCc1ccc(C(F)(F)F)o1` [Example 198, 3-[5-Chloro-3-fluoro-2-(5-trifluoromethyl-furan-2-ylmethoxy)-phenoxy]-azetidine]: the inhibition constant (Ki) stood at 1460 nM. The Ki values of the last two molecules are within 1.5-fold of each other.

Consider `Fc1ccc(OCc2cccc(Cl)c2)c(OC2CNC2)c1` [Example 202, 3-[2-(3-Chloro-benzyloxy)-5-fluoro-phenoxy]-azetidine hydrochloride], for which the Ki is 66 nM.

`CC(C)N1CC(Oc2cc(F)ccc2OCc2cccc(Cl)c2)C1` [Example 204, 3-[2-(3-Chloro-benzyloxy)-5-fluoro-phenoxy]-1-isopropyl-azetidine] displayed an inhibition constant Ki of 27 nM.

`Fc1ccc(OCc2cccc(Cl)c2)c(OC2CN(C3CCC3)C2)c1` [Example 205, 3-[2-(3-Chloro-benzyloxy)-5-fluoro-phenoxy]-1-cyclobutyl-azetidine]: the affinity, expressed as Ki, was 27 nM.
